From US9932637B2, “Genetic polymorphisms associated with cardiovascular disorders and drug response, methods of detection and uses thereof” (CELERA CORPORATION, priority 2003, dated 2018)
Values joined by “and” are separate entries in the source; they are usually repeats but may differ in a detail not shown here. Equal entries are not always repeated.

System: patients with prior myocardial infarction (CARE study)
Assay: CARE aligned analysis (prospective and case/control design, white males): association of genotypes with pravastatin efficacy (Tables 13, 15)
Assay type: in vivo, human
Conditions: for 2 Rare Alleles n/total, Pravastatin Patients / 2 Rare Alleles (%), Pravastatin Patients / Pravastatin Patients (%) / Pravastatin Patients n/total: F&NF MI; for 2 rare alleles n/total (%), pravastatin patients / Pravastatin vs placebo odds ratio, 0 rare alleles / Pravastatin vs placebo odds ratio, 1 rare allele / Pravastatin vs placebo odds ratio, 2 rare alleles: CARE, F MI/SD/NF MI; for Pravastatin Patients (%) / Pravastatin Patients n/total: WM
Method: The data presented in Table 8 based on an association of genotypes with pravastatin efficacy of the CARE samples were further analyzed and presented in Table 13. The further analysis was performed to align the data obtained from the analysis of the CARE samples, which was a prospective study, to the analysis of the WOSCOP samples, which was a case/control study. Table 13 also presents an analysis of the association of genotypes with pravastatin efficacy in the WOSCOPs samples. Relative to the analysis performed on the data presented in Table 8, there are two significant differences to determine if the SNP influenced pravastatin efficacy. Data obtained from the CARE samples were separated by study design into two groups, those in the prospective study design group and those in the case/control study design group. The original care study contained 16 protocol defined cardiovascular disease defined endpoints and 150 other phenotypes. […] The control groups used to compare the data were also divided into two groups, the “all possible” control group and the “cleaner” control group. […] Because the participants in the WOSCOPs trial were all white males, only data obtained from white males in the CARE study were analysed. Data from the “all possible” and “cleaner” controls were compared to data obtained from the cases in the prospective study design while only data from “cleaner” controls were compared to cases in the case/control study design. The data from the case/control cohorts were analysed using conditional logistic regression (as opposed to logistic regression used for the original anaylsis).
The anaylsis was refined as described for both Tables 13 and 14.

[1] = F7 hCV783184, CARE Case/Control
[2] = F13A1 hCV11972326, CARE Case/Control
[3] = FABP1 hCV16173091, CARE Case/Control
[4] = FCAR hCV7841842, CARE Case/Control
[5] = FN1 hCV9506149, CARE Case/Control
[6] = GALC hCV25922440, CARE Prospective
[7] = GAPD hCV8921288, CARE Case/Control
[8] = GAPD hCV8921288, CARE Prospective
[9] = HLA-DPB1 hCV8851065, 0 Rare Alleles, CARE Case/Control, All Possible controls
[10] = HLA-DPB1 hCV8851065, 0 Rare Alleles, CARE Case/Control, Cleaner controls
[11] = HLA-DPB1 hCV8851065, 1 Rare Allele, CARE Case/Control, All Possible controls
[12] = HLA-DPB1 hCV8851065, 1 Rare Allele, CARE Case/Control, Cleaner controls
[13] = HLA-DPB1 hCV8851065, Case/Control
[14] = HLA-DPB1 hCV8851065, Prospective
[15] = HLA-DPB1 hCV8851084, 0 Rare Alleles, CARE Case/Control, All Possible controls
[16] = HLA-DPB1 hCV8851084, 0 Rare Alleles, CARE Case/Control, Cleaner controls
[17] = HLA-DPB1 hCV8851084, 0 Rare Alleles, CARE Prospective, Cleaner controls
[18] = HLA-DPB1 hCV8851084, 1 Rare Allele, CARE Case/Control, All Possible controls
[19] = HLA-DPB1 hCV8851084, 1 Rare Allele, CARE Case/Control, Cleaner controls
[20] = HLA-DPB1 hCV8851084, 1 Rare Allele, CARE Prospective, Cleaner controls
[21] = HLA-DPB1 hCV8851084, Case/Control
[22] = HLA-DPB1 hCV8851084, Prospective
[23] = HLA-DPB1 hCV8851085, 0 Rare Alleles, CARE Case/Control, All Possible controls
[24] = HLA-DPB1 hCV8851085, 0 Rare Alleles, CARE Case/Control, Cleaner controls
[25] = HLA-DPB1 hCV8851085, 0 Rare Alleles, CARE Prospective, All Possible controls

Compound: CC[C@H](C)C(=O)O[C@H]1C[C@H](O)C=C2C=C[C@H](C)[C@H](CC[C@@H](O)C[C@@H](O)CC(=O)O)[C@H]21 [pravastatin]
- 2 Rare Alleles n/total, Pravastatin Patients (F7 hCV783138, CARE Prospective): 1/13 and 1/9
- 2 Rare Alleles (%), Pravastatin Patients [1]: (14.3%)
- 2 Rare Alleles n/total, Pravastatin Patients [1]: 2/14
- 2 Rare Alleles (%), Pravastatin Patients (F7 hCV783184, CARE Prospective): (14.3%)
- 2 Rare Alleles n/total, Pravastatin Patients (F7 hCV783184, CARE Prospective): 2/14
- 2 Rare Alleles (%), Pravastatin Patients [2]: (19.4%)
- 2 Rare Alleles n/total, Pravastatin Patients [2]: 14/72
- 2 Rare Alleles (%), Pravastatin Patients [3]: (20.9%)
- 2 Rare Alleles n/total, Pravastatin Patients [3]: 19/91
- 2 Rare Alleles n/total, Pravastatin Patients (FABP1 hCV16173091, CARE Prospective): 19/127 and 19/91
- 2 rare alleles n/total (%), pravastatin patients (FCAR hCV7841642, Prospective): (12.5%)
- Pravastatin vs placebo odds ratio, 0 rare alleles (FCAR hCV7841642, Prospective): 0.84
- Pravastatin vs placebo odds ratio, 1 rare allele (FCAR hCV7841642, Prospective): 0.27
- Pravastatin vs placebo odds ratio, 2 rare alleles (FCAR hCV7841642, Prospective): 0.43
- 2 Rare Alleles (%), Pravastatin Patients [4]: (12.5%)
- 2 Rare Alleles n/total, Pravastatin Patients [4]: 1/8
- 2 Rare Alleles (%), Pravastatin Patients [5]: (13.8%)
- 2 Rare Alleles n/total, Pravastatin Patients [5]: 12/87
- 2 Rare Alleles (%), Pravastatin Patients [6]: (14.7%)
- 2 Rare Alleles n/total, Pravastatin Patients [6]: 5/34
- 2 rare alleles n/total (%), pravastatin patients (GALC hCV25922440, Prospective): (14.7%)
- Pravastatin vs placebo odds ratio, 0 rare alleles (GALC hCV25922440, Prospective): 0.94
- Pravastatin vs placebo odds ratio, 1 rare allele (GALC hCV25922440, Prospective): 0.38
- Pravastatin vs placebo odds ratio, 2 rare alleles (GALC hCV25922440, Prospective): 1.12
- 2 Rare Alleles (%), Pravastatin Patients [7]: (7.5%)
- 2 Rare Alleles n/total, Pravastatin Patients [7]: 4/53 and 4/38
- 2 Rare Alleles (%), Pravastatin Patients [8]: (10.5%)
- 2 Rare Alleles n/total, Pravastatin Patients [8]: 4/38
- Pravastatin Patients (%) [9]: (10.0%)
- Pravastatin Patients n/total [9]: 63/633
- Pravastatin Patients (%) [10]: (14.2%)
- Pravastatin Patients n/total [10]: 63/445
- Pravastatin Patients (%) [11]: (10.0%)
- Pravastatin Patients n/total [11]: 49/491
- Pravastatin Patients (%) [12]: (14.9%)
- Pravastatin Patients n/total [12]: 49/329
- 2 rare alleles n/total (%), pravastatin patients [13]: (14.8%)
- Pravastatin vs placebo odds ratio, 0 rare alleles [13]: 0.60 and 0.52
- Pravastatin vs placebo odds ratio, 1 rare allele [13]: 0.87 and 0.80
- Pravastatin vs placebo odds ratio, 2 rare alleles [13]: 5.02 and 5.41
- 2 rare alleles n/total (%), pravastatin patients [14]: (14.8%)
- Pravastatin vs placebo odds ratio, 0 rare alleles [14]: 0.62 and 0.55
- Pravastatin vs placebo odds ratio, 1 rare allele [14]: 0.86 and 0.76
- Pravastatin vs placebo odds ratio, 2 rare alleles [14]: 4.85 and 4.94
- Pravastatin Patients (%) [15]: (10.2%)
- Pravastatin Patients n/total [15]: 80/785
- Pravastatin Patients (%) [16]: (14.7%)
- Pravastatin Patients n/total [16]: 80/546
- Pravastatin Patients (%) [17]: (14.4%)
- Pravastatin Patients n/total [17]: 80/556
- Pravastatin Patients (%) [18]: (10.1%)
- Pravastatin Patients n/total [18]: 39/385
- Pravastatin Patients (%) [19]: (14.9%)
- Pravastatin Patients n/total [19]: 39/262
- Pravastatin Patients (%) [20]: (14.7%)
- Pravastatin Patients n/total [20]: 39/265
- 2 Rare Alleles (%), Pravastatin Patients (HLA-DPB1 hCV8851084, CARE Prospective): (25.0%)
- 2 rare alleles n/total (%), pravastatin patients [21]: (22.6%)
- Pravastatin vs placebo odds ratio, 0 rare alleles [21]: 0.60
- Pravastatin vs placebo odds ratio, 1 rare allele [21]: 0.84
- Pravastatin vs placebo odds ratio, 2 rare alleles [21]: 5.83
- 2 rare alleles n/total (%), pravastatin patients [22]: (22.6%)
- Pravastatin vs placebo odds ratio, 0 rare alleles [22]: 0.61
- Pravastatin vs placebo odds ratio, 1 rare allele [22]: 0.82
- Pravastatin vs placebo odds ratio, 2 rare alleles [22]: 4.81
- Pravastatin Patients (%) [23]: (10.1%)
- Pravastatin Patients n/total [23]: 74/733
- Pravastatin Patients (%) [24]: (14.4%)
- Pravastatin Patients n/total [24]: 74/513
- Pravastatin Patients (%) [25]: (9.9%)
- Pravastatin Patients n/total [25]: 74/747
